Results taken from PMC5075052, “Modulation of the Substitution Pattern of 5-Aryl-2-Aminoimidazoles Allows Fine-Tuning of Their Antibiofilm Activity Spectrum and Toxicity” (Antimicrobial Agents and Chemotherapy, 2016).
Read-outs that look alike come from different tables or passages of the source.

Key:
[1] = system: P. aeruginosa PA14; experiment: Monospecies bacterial biofilm inhibition, static peg assay; type: cell-based, Pseudomonas aeruginosa; conditions: Pseudomonas aeruginosa
Procedure: (§1) A static peg assay, described previously ([27], [74]), was used for bacterial biofilm formation. The Calgary biofilm device consists of a platform carrying 96 polystyrene pegs (Nunc no. 445497) that fits as a microtiter plate lid, with 1 peg hanging into each microtiter plate well (Nunc no. 269789). Twofold serial dilutions of the compounds (dissolved in 100% dimethyl sulfoxide [DMSO] or ethanol) in 100 μl liquid broth (TSB diluted 1/20) per well were prepared in the microtiter plate in duplicate or triplicate with a maximum concentration of 1,600 μM and a minimum concentration of 0.8 μM. Subsequently, an overnight culture of S. Typhimurium ATCC 14028, P. aeruginosa PA14, E. coli TG1, S. epidermidis, S. aureus SH1000, or S. aureus ATCC 6538 (all grown in LB) was diluted 1:100 into TSB diluted 1/20 (or TSB for S. epidermidis, S. aureus SH1000, and S. aureus ATCC 6538), whereas overnight cultures of S. liquefaciens MG44 and B. cepacia LMG1222T were diluted 1:50 into TSB diluted 1/20. P. gingivalis ATCC 33277 cultures were diluted in TSB diluted 1/20 to have a final concentration of 1 × 10^8 cells/ml. Next, 100 μl was added to each well of the microtiter plate, resulting in a total volume of 200 μl medium per well (final concentration range of compounds, 800 μM [2% DMSO or ethanol] to 0.4 μM [0.001% DMSO or ethanol]). In the next step, the pegged lid was placed on the microtiter plate and the plate was incubated for 24 h or 48 h at 25°C or 37°C without shaking. At 37°C, the plates were placed in a sealed container with wet towels on the bottom to prevent evaporation of the growth medium. Biofilms of P. gingivalis ATCC 33277 were grown anaerobically at 37°C for 72 h. During this incubation period, biofilms were formed on the surface of the pegs. After incubation, the optical density at 600 nm (OD600) for the planktonic cells in the microtiter plate was measured using a Synergy MX multimode reader (BioTek, Winooski, VT). This gives a first indication of the effect of the compounds on planktonic growth. For quantification of biofilm formation, the pegs were washed once in 200 μl PBS. The remaining attached bacteria were stained for 30 min with 200 μl 0.1% (wt/vol) crystal violet in an isopropanol-methanol-PBS solution (1:1:18, vol/vol). Excess stain was rinsed off by placing the pegs in a 96-well plate filled with 200 μl distilled water per well. After air drying of the pegs (30 min), the dye bound to the adherent biofilm was extracted with 30% glacial acetic acid (200 μl per well of a 96-well plate). The optical density at 570 nm (OD570) of each well was measured using a Synergy MX multimode reader (BioTek, Winooski, VT). The concentration of each compound needed to inhibit biofilm formation by 50% (BIC50) and the concentration of each compound needed to inhibit planktonic growth by 50% (IC50) were determined from the concentration gradient by using nonlinear curve fitting (GraphPad Prism software, version 5; GraphPad Software, Inc., La Jolla, CA). In the same assay, the effect on planktonic growth was evaluated. The activity was considered biofilm specific if the BIC50 was at least two times lower than the IC50. Data represent the means from at least 3 technical repeats with the corresponding 95% confidence intervals (provided in the supplemental material).

[2] = system: S. aureus ATCC 6538; experiment: Monospecies bacterial biofilm inhibition, static peg assay (Calgary device, crystal violet; planktonic OD600); type: cell-based, Staphylococcus aureus; conditions: Staphylococcus aureus, ATCC6538, S. aureus ATCC 6538, 37°C
Procedure: as §1

[3] = system: S. aureus ATCC 6538 + S. epidermidis; experiment: Mixed-species S. aureus-S. epidermidis biofilm assay (peg, crystal violet); type: cell-based, Staphylococcus aureus + Staphylococcus epidermidis; conditions: 37°C
Procedure: Overnight cultures of S. aureus ATCC 6538 and S. epidermidis were grown in LB medium and were diluted 1/200 in the same vial of TSB to form a mixed-culture suspension. Next, 2-fold serial dilutions of the compounds (dissolved in 100% DMSO or ethanol) in 100 μl TSB medium per well were prepared in the microtiter plate (Nunc no. 269789) in duplicate or triplicate with a maximum concentration of 1,600 μM and a minimum concentration of 0.8 μM. One hundred microliters of the mixed-culture suspension was added to each well of the microtiter plate, resulting in a total volume of 200 μl medium per well (final concentration range of compounds, 800 μM [2% DMSO or ethanol] to 0.4 μM [0.001% DMSO or ethanol]). The cells were then incubated for 48 h at 37°C, which allowed biofilm formation on the pegs (Nunc no. 269789) of the Calgary biofilm device. After 24 h, fresh medium with compounds was added to the wells, and after 48 h, the biofilm was colored with crystal violet as described above ([74]). The OD570 (biofilm) and OD600 (planktonic) were measured, and the BIC50 and the IC50, respectively, were calculated.

[4] = system: C. albicans SC5314; experiment: Inhibition of C. albicans biofilms, CellTiter-Blue quantification; type: cell-based, Candida albicans; conditions: Candida albicans; C. albicans SC5314, 37°C, CTB method; read-out: BIC50 (μM) for C. albicans SC5314 (37°C)
Procedure: The potential of the compounds to prevent C. albicans SC5314 biofilm formation was assessed using the CellTiter-Blue (CTB) quantification method ([75]). […]. Twofold serial dilutions of the compounds (dissolved in 100% DMSO or ethanol) in 100 μl RPMI 1640 medium per well were prepared in a round-bottom polystyrene 96-well microtiter plate (TPP; Trasadingen, Switzerland) in duplicate or triplicate with a maximum concentration of 1,600 μM and a minimum concentration of 0.8 μM. One hundred microliters of the cell suspension was added to each well of the microtiter plate, resulting in a total volume of 200 μl medium per well (final concentration range of compounds, 800 μM [2% DMSO or ethanol] to 0.4 μM [0.001% DMSO or ethanol]). After 16 h of static incubation at 37°C, the biofilms were washed and quantified by the CTB method as described previously ([73]).

[5] = system: E. coli TG1; experiment: Monospecies bacterial biofilm inhibition, static peg assay; type: cell-based, Escherichia coli; conditions: Escherichia coli
Procedure: as §1

- IC50 ([1]; PA14, P. aeruginosa PA14, 25°C, read-out: BIC50): > 400 µM
- IC50 ([1]; PA14, P. aeruginosa PA14, 25°C, read-out: IC50 (planktonic growth)): > 400 µM
- IC50 ([1]; PA14, P. aeruginosa PA14, 37°C, read-out: BIC50): > 400 µM
- IC50 ([1]; PA14, P. aeruginosa PA14, 37°C, read-out: IC50 (planktonic growth)): > 400 µM
- IC50 ([3]; mixed S. aureus ATCC 6538 + S. epidermidis biofilm, read-out: BIC50): 4.9 µM
- IC50 ([3]; mixed S. aureus ATCC 6538 + S. epidermidis, read-out: IC50 (planktonic growth)): ~25.1 µM
- IC50 [4]: > 100 µM
- IC50 ([5]; TG1, E. coli TG1, 25°C, read-out: BIC50): > 400 µM
- IC50 ([5]; TG1, E. coli TG1, 25°C, read-out: IC50 (planktonic growth)): > 400 µM
- IC50 ([5]; TG1, E. coli TG1, 37°C, read-out: BIC50): > 400 µM
- IC50 ([5]; TG1, E. coli TG1, 37°C, read-out: IC50 (planktonic growth)): > 400 µM
SMILES: CCCCCCCCn1c(-c2ccc(Cl)c(Cl)c2)cnc1NC1CCCC1 [Compound 8h]
- IC50 ([2]; planktonic OD600, read-out: IC50 (concentration needed to inhibit planktonic growth by 50%)): 19.5 µM
- IC50 ([2]; read-out: BIC50 (concentration needed to inhibit biofilm formation by 50%)): 3.8 µM
